Assay results as given in patent EP0721774A2, “Anti-microbial compositions” (UNILEVER N.V., priority 1994, dated 1996).

Columns and labels:
S.sanguis = assay: Minimum inhibitory concentration (MIC), spot dilution on lawned SDM agar plates; type: cell-based, Streptococcus sanguis
Description: (§1) The minimum inhibitory concentrations (MICs) of these peptides were determined as follows: Organisms were subcultured from BHIS agar into BHI broth and incubated at 37°C for 2 days. They were then diluted 1/100 in fresh broth and flooded onto pre-dried SDM agar plates. Excess culture was removed by pipetting. Plates were then allowed to dry at room temperature. The various synthesised peptides were dissolved in sterile water at a concentration of 1 %. Doubling dilutions, in water, were carried out down to 0.03 %. 15 µl of each dilution was spotted onto the lawned cultures, allowed to dry and then the plates were incubated at 37°C for 2 days. Plates were then read for zones of inhibition. The MIC was taken as the lowest dilution still causing visible growth inhibition.
(§2) All organisms were routinely grown on supplemented Brain Heart Infusion agar (Difco) and when appropriate subcultured into Brain Hearth Infusion broth (Difco). For MIC assays a chemically defined solid medium (SDM) was used^(5).
Streptococcus sanguis strains were all clinical isolates from the plaque of panellists in ongoing oral ecology studies.

S.salivarius = assay: as above; type: cell-based, Steptococcus salivarius
Description: as §1, §2
Steptococcus salivarius strans were all wild plaque isolates from oral ecology studies.

Candida = assay: as above; type: cell-based
Description: as §1, §2
Candida strains 83 and 41 were isolated from oral ecology studies.

Lactobacilli = assay: as above; type: cell-based
Description: as §1, §2
Lactobacilli were from the in house Colworth Microbial Culture Collection. SB115 and SB116 were L.casei var. rhamnosus, SB82 had been classified as L.plantarum, SB83 and SB85 were Lactobacillus sp. and SB 9 was L.casei.

C. albicans = conditions: compared among histatins -1, -3 and -5; cited from earlier work
S.mutans = assay: Minimum inhibitory concentration (MIC), spot dilution on lawned SDM agar plates; type: cell-based, Streptococcus mutans
Description: as §1, §2
The organisms used were the following: Streptococcus mutans strains were clinical isolates, from the plaque of panellists in oral ecology studies. […] SM11060 belonged to serotype f and SM10919 belonged to serotype g. Strain SMB13 (serotype d) was supplied by PHLS, Porton Down.

Actinomyces = assay: as above; type: cell-based
Description: as §1, §2
Actinomyces 12/2, 69A and 41A were plaque isolates from oral ecology studies.

With Histatin-5 the MIC (S.sanguis; strain 6/9) was “growth stimulated”, the MIC (S.sanguis; strain 10/23) was “growth stimulated” and the MIC (S.sanguis; strain SS209) was “growth stimulated”. For the same substance, the MIC (S.salivarius; strain 2/7) was “growth stimulated”, the MIC (S.salivarius; strain 2/27) was “growth stimulated” and the MIC (S.salivarius; strain 14/9) was “growth stimulated”. For the same substance, the MIC (Candida; strain 41) was over 1.0%, the MIC (Candida; strain 83) was over 1.0% and the MIC (Lactobacilli; strain SB9 (L.casei)) was 1.0%. The MIC (Lactobacilli; strain SB81) was 0.125%, the MIC (Lactobacilli; strain SB82 (L.plantarum)) was 0.125% and the MIC (Lactobacilli; strain SB116 (L.casei var. rhamnosus)) was 1.5%. For the same substance, the “ability to kill the pathogenic yeast C. albicans” value (C. albicans) was “most effective”, the MIC (S.mutans; strain SM1dg) was 1.0% and the MIC (S.mutans; strain SM24dg) was 1.0%. The MIC (S.mutans; strain SM28B) was 1.0%, the MIC (S.mutans; strain SM44A) was 0.5% and the MIC (S.mutans; strain SM84C) was 1.0%. The MIC (S.mutans; strain SM148dg) was 0.5%, the MIC (S.mutans; strain SM189) was 0.5% and the MIC (S.mutans; strain SM211) was 0.25%. The MIC (S.mutans; strain SM6715) was 0.5%, the MIC (S.mutans; strain SM10449) was 0.25% and the MIC (S.mutans; strain SMNW1) was 1.0%. For the same substance, the MIC (S.mutans; strain SMNW6) was 1.0%, the MIC (S.mutans; strain SMNW10) was 0.5% and the MIC (Actinomyces; strain 10A) was 1.0%. For the same substance, the MIC (Actinomyces; strain 11A) was 0.5%, the MIC (Actinomyces; strain 16A) was “growth stimulated” and the MIC (Actinomyces; strain 41A) was 1.0%. The MIC (Actinomyces; strain 69A) was “growth stimulated” and the MIC (Actinomyces; strain 71A) was 0.5%.
